# Literature values in article PMC8227856, “Antibacterial Activity of a Promising Antibacterial Agent: 22-(4-(2-(4-Nitrophenyl-piperazin-1-yl)-acetyl)-piperazin-1-yl)-22-deoxypleuromutilin” (Molecules, 2021).
# Design: method as in PMID 25812151
# Details: mice, oral acute toxicity; cited from earlier work
smiles,measurement,value
"C=C[C@]1(C)C[C@@H](OC(=O)CSc2nnc(N)s2)[C@]2(C)[C@H](C)CC[C@]3(CCC(=O)[C@H]32)[C@@H](C)[C@@H]1O [ATTM, 14-O-[(2-Amino-1,3,4-thiadiazol-5-yl)Thioacetyl] Mutilin]",LD50,2304.4 mg/kg
